# Laboratory results reported in ChEMBL document CHEMBL3045945, “INHIBITORS OF FILARIAL GAMMA-GLUTAMYL CYCLE ENZYMES AS POSSIBLE MACROFILARICIDAL AGENTS” (Med Chem Res, 2004).
# Counter-ions that a name gives are not always drawn. Activity calls are given as the source filed them. The calls are words filed in the database; no cut-off is given here.
# Molecular target: Glutathione hydrolase 1 proenzyme (Rattus norvegicus, UniProt P07314)
# Assay: Inhibition of Rattus norvegicus Wistar (rat) rat Gamma-glutamyltranspeptidase using L-gamma-glutamyl-p-nitroanilide as substrate incubated for 15 min prior to substrate addition by spectrophotometric analysis
# Chain of Glutathione hydrolase 1 proenzyme (P07314 1-379 limits assumed): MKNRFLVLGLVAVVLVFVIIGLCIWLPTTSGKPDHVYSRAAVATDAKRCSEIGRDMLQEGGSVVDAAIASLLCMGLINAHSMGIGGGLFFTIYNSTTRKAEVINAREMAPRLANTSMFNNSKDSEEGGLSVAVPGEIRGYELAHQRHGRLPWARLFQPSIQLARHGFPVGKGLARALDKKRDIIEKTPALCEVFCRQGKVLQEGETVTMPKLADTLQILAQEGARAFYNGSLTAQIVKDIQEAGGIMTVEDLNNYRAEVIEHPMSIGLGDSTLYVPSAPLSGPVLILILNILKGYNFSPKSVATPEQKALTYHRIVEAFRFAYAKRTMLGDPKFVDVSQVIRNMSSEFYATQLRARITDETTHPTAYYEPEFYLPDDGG
# Chain of Glutathione hydrolase 1 proenzyme (P07314 380-568 limits assumed): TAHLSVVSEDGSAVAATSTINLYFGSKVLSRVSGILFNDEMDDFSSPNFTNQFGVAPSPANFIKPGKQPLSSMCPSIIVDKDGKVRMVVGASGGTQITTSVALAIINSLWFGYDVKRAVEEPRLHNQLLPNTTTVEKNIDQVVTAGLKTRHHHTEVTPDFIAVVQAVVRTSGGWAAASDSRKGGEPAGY
row,Ki,Compound
1,50 µM,N[C@@H](CO)C(=O)O [SERINE]

# System: Setaria cervi
# Assay: Antifilarial activity against Setaria cervi assessed as change in GSH level at 250 uM after 6 hr by RP-HPLC analysis
# Format: functional
row,Compound,Activity
1,CC(C)=CC(=O)C=C(C)C [PHORONE],93.7%
2,CCCc1cc(=O)oc2cc(OCC(=O)OCC)ccc12,5.75%
3,"CCOC(=O)CC(NCCCNC(CC(=O)OCC)[C@@H]1O[C@H]2OC(C)(C)O[C@H]2[C@@H]1OCc1ccccc1)C1O[C@@H]2OC(C)(C)OC2[C@H]1OCc1ccccc1 (single isomer, unassigned)",59.12%
4,CO[C@@H]1[C@H]2OC(C)(C)O[C@H]2O[C@@H]1CNCCCCCCCCCCNC[C@@H]1O[C@H]2OC(C)(C)O[C@H]2[C@@H]1OC,33.14%
5,"CO[C@H]1[C@@H](CNCCCCCCCNC[C@@H]2O[C@H]3OC(C)(C)OC3[C@@H]2OC)OC2OC(C)(C)O[C@@H]21 (single isomer, unassigned)",52.54%
6,Cc1cc(=O)oc2cc(OCC(=O)NC3CCCCC3)ccc12,46%
7,CC1(C)O[C@@H]2O[C@@H](CNCCCCCCCCCCCCNC[C@H]3O[C@@H]4OC(C)(C)O[C@@H]4[C@H]3OCc3ccccc3)[C@@H](OCc3ccccc3)[C@@H]2O1,60%
8,CCOC(=O)CC(NCCCNC(CC(=O)OCC)[C@@H]1O[C@H]2OC(C)(C)O[C@H]2[C@@H]1OC)[C@H]1O[C@@H]2OC(C)(C)O[C@@H]2[C@H]1OC (some centres not stated),14.55%
9,Cc1cc(=O)oc2cc(OCC(=O)NCCCCCCCCCCCCN)ccc12,3.22%
10,CCOC(=O)CC(NCCCCCCCNC(CC(=O)OCC)[C@@H]1O[C@H]2OC(C)(C)O[C@H]2[C@@H]1OC)[C@H]1O[C@@H]2OC(C)(C)O[C@@H]2[C@H]1OC (some centres not stated),39.04%
11,CCCCCCCCCCCCCC(=O)Oc1ccc2c(C)cc(=O)oc2c1,inactive
12,CCOC(=O)CC(NCCCCCCCCCCNC(CC(=O)OCC)[C@@H]1O[C@H]2OC(C)(C)O[C@H]2[C@@H]1OC)[C@H]1O[C@@H]2OC(C)(C)O[C@@H]2[C@H]1OC (some centres not stated),48%
13,O=NN(CCCl)C(=O)NCCCl [CARMUSTINE],68.97%
14,Cc1cc2oc(=O)cc(C)c2cc1C,42.07%
15,Cc1cc(C)c2c(C)cc(=O)oc2c1,65%
16,CCOC(=O)CC(NCCCCCCCCCCCCNC(CC(=O)OCC)[C@@H]1O[C@H]2OC(C)(C)O[C@H]2[C@@H]1OCc1ccccc1)[C@H]1O[C@@H]2OC(C)(C)O[C@@H]2[C@H]1OCc1ccccc1 (some centres not stated),67%
17,CN(C)c1ccc2nc3ccc(N(C)C)cc3[s+]c2c1.[Cl-] [METHYLENE BLUE ANHYDROUS],34.68%
18,CO[C@@H]1[C@H]2OC(C)(C)O[C@H]2O[C@@H]1CNCCCCCCCCCCCCNC[C@@H]1O[C@H]2OC(C)(C)O[C@H]2[C@@H]1OC (stereo in doubt),39%
19,CC1=CC(=O)c2ccccc2C1=O [MENADIONE],96.04%
20,CC1(C)O[C@@H]2O[C@@H](CNCCCCCCCNC[C@H]3O[C@@H]4OC(C)(C)O[C@@H]4[C@H]3OCc3ccccc3)[C@@H](OCc3ccccc3)[C@@H]2O1,69.29%
21,CCOC(=O)CC(NCCCCCCCCCCCCNC(CC(=O)OCC)[C@@H]1O[C@H]2OC(C)(C)O[C@H]2[C@@H]1OC)[C@H]1O[C@@H]2OC(C)(C)O[C@@H]2[C@H]1OC (stereo in doubt),37.43%
22,CC1(C)O[C@@H]2O[C@@H](CNCCCCCCCCCCNC[C@H]3O[C@@H]4OC(C)(C)O[C@@H]4[C@H]3OCc3ccccc3)[C@@H](OCc3ccccc3)[C@@H]2O1,52.5%
23,COC(=O)/C=C\C(=O)OC [DIMETHYL MALEATE],95.82%
24,CCOC(=O)CC(NCCCCCCCCCCNC(CC(=O)OCC)[C@@H]1O[C@H]2OC(C)(C)O[C@H]2[C@@H]1OCc1ccccc1)[C@H]1O[C@@H]2OC(C)(C)O[C@@H]2[C@H]1OCc1ccccc1 (some centres not stated),58.17%
25,CCCCS(=N)(=O)CC[C@H](N)C(=O)O (some centres not stated) [BUTHIONINE SULFOXIME],35.78%
26,"CCOC(=O)CC(NCCCCCCCNC(CC(=O)OCC)[C@H]1O[C@@H]2OC(C)(C)OC2[C@H]1OCc1ccccc1)C1OC2OC(C)(C)O[C@H]2[C@@H]1OCc1ccccc1 (single isomer, unassigned)",15.9%
